Laboratory results from patent US12264134B2 (Merck Sharp & Dohme LLC, priority 2018, dated 2025).

Molecular target: IDO1 (Homo sapiens, UniProt P14902)
Assay: IDO1 Cellular Assay in HeLa Cells Stimulated with IFNγ
Assay type: cell-based
Details: read-out: HeLa Cell Potency, IC50

Chain of IDO1 (P14902 whole entry): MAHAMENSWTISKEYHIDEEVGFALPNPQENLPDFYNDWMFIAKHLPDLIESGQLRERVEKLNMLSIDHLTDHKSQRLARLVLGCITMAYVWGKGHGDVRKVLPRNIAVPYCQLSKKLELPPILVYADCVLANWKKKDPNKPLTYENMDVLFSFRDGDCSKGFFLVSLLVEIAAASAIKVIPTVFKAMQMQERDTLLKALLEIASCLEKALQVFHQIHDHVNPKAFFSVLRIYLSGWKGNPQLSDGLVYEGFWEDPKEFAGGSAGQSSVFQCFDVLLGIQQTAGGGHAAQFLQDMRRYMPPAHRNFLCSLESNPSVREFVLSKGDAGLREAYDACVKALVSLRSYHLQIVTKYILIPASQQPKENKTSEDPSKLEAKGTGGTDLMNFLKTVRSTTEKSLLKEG

Compound | IC50
Cc1cccc(N2CCN(C(=O)Cn3nc(C(=O)N4CCC(N5CCCC5=O)CC4)c4c3C[C@H]3C[C@@H]43)CC2)c1C [Example 228, 1-{2-[(3bR,4aR)-1-{2-[4-(2,3-dimethylphenyl)piperazin-1-yl]-2-oxoethyl}-3b,4,4a,5-tetrahydro-1H-cyclopropa[3,4]cyclopenta[1,2-c]pyrazole-3-carbonyl]piperidin-4-yl}pyrrolidin-2-one] | 1 nM
Cc1cccc(N2CCN(C(=O)Cn3nc(C(=O)N4CC[C@@H](O)C[C@H]4C)c4c3C[C@H]3C[C@@H]43)CC2)c1C [Example 231, 1-[4-(2,3-dimethylphenyl)piperazin-1-yl]-2-{(3bR,4aR)-3-[(2R,4R)-4-hydroxy-2-methylpiperidine-1-carbonyl]-3b,4,4a,5-tetrahydro-1H-cyclopropa[3,4]cyclopenta[1,2-c]pyrazol-1-yl}ethan-1-one] | 4.38 nM
Cc1cccc(N2CCN(C(=O)Cn3nc(C(=O)N4CC[C@H]5[C@@H](C4)NC(=O)N5C)c4c3C[C@H]3C[C@@H]43)CC2)c1C [Example 237, (3aR,7aS)-5-[(3bR,4aR)-1-{2-[4-(2,3-dimethylphenyl)piperazin-1-yl]-2-oxoethyl}-3b,4,4a,5-tetrahydro-1H-cyclopropa[3,4]cyclopenta[1,2-c]pyrazole-3-carbonyl]-1-methyloctahydro-2H-imidazo[4,5-c]pyridin-2-one] | 79.1 nM
Cc1cccc(N2CCN(C(=O)Cn3nc(C(=O)N4CCC5NC(=O)OCC5C4)c4c3C[C@H]3C[C@@H]43)CC2)c1C (stereo partly drawn) [Example 240, 6-[(3bR,4aR)-1-{2-[4-(2,3-dimethylphenyl)piperazin-1-yl]-2-oxoethyl}-3b,4,4a,5-tetrahydro-1H-cyclopropa[3,4]cyclopenta[1,2-c]pyrazole-3-carbonyl]octahydro-2H-pyrido[4,3-d][1,3]oxazin-2-one] | 13.3 nM
CN[C@H]1CCCN(C(=O)c2nn(CC(=O)N3CCN(c4cccc(C)c4C)CC3)c3c2[C@@H]2C[C@@H]2C3)C1 [Example 241, 1-[4-(2,3-dimethylphenyl)piperazin-1-yl]-2-{(3bR,4aR)-3-[(3S)-3-(methylamino)piperidine-1-carbonyl]-3b,4,4a,5-tetrahydro-1H-cyclopropa[3,4]cyclopenta[1,2-c]pyrazol-1-yl}ethan-1-one] | 164 nM
Cc1cccc(N2CCN(C(=O)Cn3nc(C(=O)N4CCC5(CC4)CNC(=O)CO5)c4c3C[C@H]3C[C@@H]43)CC2)c1C [Example 244, 9-[(3bR,4aR)-1-{2-[4-(2,3-dimethylphenyl)piperazin-1-yl]-2-oxoethyl}-3b,4,4a,5-tetrahydro-1H-cyclopropa[3,4]cyclopenta[1,2-c]pyrazole-3-carbonyl]-1-oxa-4,9-diazaspiro[5.5]undecan-3-one] | 4.77 nM
Cc1cccc(N2CCN(C(=O)Cn3nc(C(=O)N4CCC(C)(O)CC4C)c4c3C[C@H]3C[C@@H]43)CC2)c1C (stereo partly drawn) [Example 245, 1-[4-(2,3-dimethylphenyl)piperazin-1-yl]-2-[(3bR,4aR)-3-(4-hydroxy-2,4-dimethylpiperidine-1-carbonyl)-3b,4,4a,5-tetrahydro-1H-cyclopropa[3,4]cyclopenta[1,2-c]pyrazol-1-yl]ethan-1-one] | 3.01 nM
Cc1cccc(N2CCN(C(=O)Cn3nc(C(=O)N4CCC(C)(CO)CC4)c4c3C[C@H]3C[C@@H]43)CC2)c1C [Example 248, 1-[4-(2,3-dimethylphenyl)piperazin-1-yl]-2-{(3aR,4aR)-3-[4-(hydroxymethyl)-4-methylpiperidine-1-carbonyl]-3b,4,4a,5-tetrahydro-1H-cyclopropa[3,4]cyclopenta[1,2-c]pyrazol-1-yl}ethan-1-one] | 0.7 nM
Cc1cccc(N2CCN(C(=O)Cn3nc(C(=O)N4CCN(CC(F)(F)F)CC4)c4c3C[C@H]3C[C@@H]43)CC2)c1C [Example 250, 1-[4-(2,3-dimethylphenyl)piperazin-1-yl]-2-{(3bR,4aR)-3-[4-(2,2,2-trifluoroethyl)piperazine-1-carbonyl]-3b,4,4a,5-tetrahydro-1H-cyclopropa[3,4]cyclopenta[1,2-c]pyrazol-1-yl}ethan-1-one] | 0.94 nM
Cc1cccc(N2CCN(C(=O)Cn3nc(C(=O)N4CC[C@@H](CO)C4)c4c3C[C@H]3C[C@@H]43)CC2)c1C [Example 252, 1-[4-(2,3-dimethylphenyl)piperazin-1-yl]-2-{(3bR,4aR)-3-[(3R)-3-(hydroxymethyl)pyrrolidine-1-carbonyl]-3b,4,4a,5-tetrahydro-1H-cyclopropa[3,4]cyclopenta[1,2-c]pyrazol-1-yl}ethan-1-one] | 1.5 nM
Cc1cccc(N2CCN(C(=O)Cn3nc(C(=O)N4CCC(N5CCNC5=O)CC4)c4c3C[C@H]3C[C@@H]43)CC2)c1C [Example 253, 1-{1-[(3bR,4aR)-1-{2-[4-(2,3-dimethylphenyl)piperazin-1-yl]-2-oxoethyl}-3b,4,4a,5-tetrahydro-1H-cyclopropa[3,4]cyclopenta[1,2-c]pyrazole-3-carbonyl]piperidin-4-yl}imidazolidin-2-one] | 1.52 nM

More lines, in order of falling IC50, values ahead:

IC50 | Compound
160 nM | Cc1cccc(N2CCN(C(=O)Cn3nc(C(=O)N4CC5(CCN(C)C5)C4)c4c3C[C@H]3C[C@@H]43)CC2)c1C [Example 243, 1-[4-(2,3-dimethylphenyl)piperazin-1-yl]-2-[(3bR,4aR)-3-(6-methyl-2,6-diazaspiro[3.4]octane-2-carbonyl)-3b,4,4a,5-tetrahydro-1H-cyclopropa[3,4]cyclopenta[1,2-c]pyrazol-1-yl]ethan-1-one]
101 nM | Cc1cccc(N2CCN(C(=O)Cn3nc(C(=O)N4CCC(NC(=O)NN)CC4)c4c3C[C@H]3C[C@@H]43)CC2)c1C [Example 242, N-{1-[(3bR,4aR)-1-{2-[4-(2,3-dimethylphenyl)piperazin-1-yl]-2-oxoethyl}-3b,4,4a,5-tetrahydro-1H-cyclopropa[3,4]cyclopenta[1,2-c]pyrazole-3-carbonyl]piperidin-4-yl}hydrazinecarboxamide]
61.4 nM | Cc1cccc(N2CCN(C(=O)Cn3nc(C(=O)N4CC5(CNC5)C4)c4c3C[C@H]3C[C@@H]43)CC2)c1C [Example 232, 2-[(3bR,4aR)-3-(2,6-diazaspiro[3.3]heptane-2-carbonyl)-3b,4,4a,5-tetrahydro-1H-cyclopropa[3,4]cyclopenta[1,2-c]pyrazol-1-yl]-1-[4-(2,3-dimethylphenyl)piperazin-1-yl]ethan-1-one]
55 nM | Cc1cccc(N2CCN(C(=O)Cn3nc(C(=O)N4CCC5NCC5C4)c4c3C[C@H]3C[C@@H]43)CC2)c1C (stereo partly drawn) [Example 236, 2-[(3bR,4aR)-3-(3,7-diazaspiro[4.2.0]octane-3-carbonyl)-3b,4,4a,5-tetrahydro-1H-cyclopropa[3,4]cyclopenta[1,2-c]pyrazol-1-yl]-1-[4-(2,3-dimethylphenyl)piperazin-1-yl]ethan-1-one]
6.53 nM | Cc1cccc(N2CCN(C(=O)Cn3nc(C(=O)N4CCC5NC(=O)OCC5C4)c4c3C[C@H]3C[C@@H]43)CC2)c1C (stereo partly drawn) [Example 239, 6-[(3bR,4aR)-1-{2-[4-(2,3-dimethylphenyl)piperazin-1-yl]-2-oxoethyl}-3b,4,4a,5-tetahydro-1H-cyclopropa[3,4]cyclopenta[1,2-c]pyrazole-3-carbonyl]octahydro-2H-pyrido[4,3-d][1,3]oxazin-2-one]
6.33 nM | Cc1cccc(N2CCN(C(=O)Cn3nc(C(=O)N4CCCC(N5CCNC5=O)C4)c4c3C[C@H]3C[C@@H]43)CC2)c1C (stereo partly drawn) [Example 226, 1-{1-[(3bR,4aR)-1-{2-[4-(2,3-dimethylphenyl)piperazin-1-yl]-2-oxoethyl}-3b,4,4a,5-tetrahydro-1H-cyclopropa[3,4]cyclopenta[1,2-c]pyrazole-3-carbonyl]piperidin-3-yl}imidazolidin-2-one]
3.27 nM | Cc1cccc(N2CCN(C(=O)Cn3nc(C(=O)N4CCN5CCCC[C@@H]5C4)c4c3C[C@H]3C[C@@H]43)CC2)c1C [Example 246, 1-[4-(2,3-dimethylphenyl)piperazin-1-yl]-2-{(3bR,4aR)-3-[(9aR)-octahydro-2H-pyrido[1,2-a]pyrazine-2-carbonyl]-3b,4,4a,5-tetrahydro-1H-cyclopropa[3,4]cyclopenta[1,2-c]pyrazol-1-yl}ethan-1-one]
2.33 nM | Cc1cccc(N2CCN(C(=O)Cn3nc(C(=O)N4CCC(C(F)F)C4)c4c3C[C@H]3C[C@@H]43)CC2)c1C (stereo partly drawn) [Example 233, 2-{(3bR,4aR)-3-[3-(difluoromethyl)pyrrolidine-1-carbonyl]-3b,4,4a,5-tetrahydro-1H-cyclopropa[3,4]cyclopenta[1,2-c]pyrazol-1-yl}-1-[4-(2,3-dimethylphenyl)piperazin-1-yl]ethan-1-one]
2.19 nM | Cc1cccc(N2CCN(C(=O)Cn3nc(C(=O)N4CCC5(CC4)CNC(=O)N5C)c4c3C[C@H]3C[C@@H]43)CC2)c1C [Example 227, 8-[(3bR,4aR)-1-{2-[4-(2,3-dimethylphenyl)piperazin-1-yl]-2-oxoethyl}-3b,4,4a,5-tetrahydro-1H-cyclopropa[3,4]cyclopenta[1,2-c]pyrazole-3-carbonyl]-1-methyl-1,3,8-triazaspiro[4.5]decan-2-one]
1.71 nM | CNC(=O)C1CCN(C(=O)c2nn(CC(=O)N3CCN(c4cccc(C)c4C)CC3)c3c2[C@@H]2C[C@@H]2C3)CC1 [Example 254, 1-[(3bR,4aR)-1-{2-[4-(2,3-dimethylphenyl)piperazin-1-yl]-2-oxoethyl}-3b,4,4a,5-tetrahydro-1H-cyclopropa[3,4]cyclopenta[1,2-c]pyrazol-3-carbonyl]-N-methylpiperidine-4-carboxamide]
0.94 nM | Cc1cccc(N2CCN(C(=O)Cn3nc(C(=O)N4CC[C@H](CO)C4)c4c3C[C@H]3C[C@@H]43)CC2)c1C [Example 251, 1-[4-(2,3-dimethylphenyl)piperazin-1-yl]-2-{(3bR,4aR)-3-[(3S)-3-(hydroxymethyl)pyrrolidine-1-carbonyl]-3b,4,4a,5-tetrahydro-1H-cyclopropa[3,4]cyclopenta[1,2-c]pyrazol-1-yl}ethan-1-one]
0.62 nM | Cc1cccc(N2CCN(C(=O)Cn3nc(C(=O)N4CCC(CO)CC4)c4c3C[C@H]3C[C@@H]43)CC2)c1C [Example 249, 1-[4-(2,3-dimethylphenyl)piperazin-1-yl]-2-{(3bR,4aR)-3-[4-(hydroxymethyl)piperidine-1-carbonyl]-3b,4,4a,5-tetrahydro-1H-cyclopropa[3,4]cyclopenta[1,2-c]pyrazol-1-yl}ethan-1-one]
